One compound from US20100113602A1, “USE OF HISTONE DEACETYLASE INHIBITORS FOR THE TREATMENT OF CENTRAL NERVOUS SYSTEM METASTASES” (The United States of America,as represented by the …, priority 2007, published 2010) can be followed below.

Series [1] relates to 231-BR cells. The series can be described thus: 48-well Boyden chamber chemotaxis (motility) assay. It is filed as cell-based, human. To be noted: 24 hours drug treatment, 4 hours migration, SAHA 5 μM, depsipeptide 10 ng/mL, VPA 10 mM, TSA 100 ng/mL, ± standard deviation. On the procedure:
231-BR Cells are used as described in Example 2. A 48-well Boyden chemotaxis chamber is used. Polycarbonate PVP-free Nucleopore filters (8 μm pore size) are coated with 0.01% collagen (BD Bioscience). […] Drug concentrations used are as described in Example 2. 231-BR cells, after 24 hours of vorinostat, other drug treatment, or control are added to the top chamber in DMEM with 1 mg/ml BSA at a concentration of 2×10^6 cells/ml. Chambers are incubated for 4 hours in a 37° C. incubator with 5% CO2. After chambers are disassembled, filters are fixed and stained with reagents from a Diff-Quik® Kit (Fischer Scientific). Cells that migrate through the Boyden chamber are counted using a light microscope. Representative areas are counted to determine the number of cells that have migrated for each well. Data in Table 5 are shown as mean number of cells±standard deviation that migrate per well. Analysis of variance (ANOVA) is used to assess in vitro functions of vehicle treated versus vorinostat treated cells. P values can be two-tailed. Tests can be performed using GraphPad InStat version 3.0 software.

For series [2] the following is noted: mouse, in vivo. On the procedure: All animal experiments are conducted under an approved Animal Use Agreement with the NCI. Under isoflurane anesthesia, 20 female Balb/c nude mice (Charles River Laboratories, Frederick, Md.) 5-7 weeks old are inoculated with 500,000 (Experiment 1) or 100,000 (Experiment 2) MDA-MB-231-BR cells in 0.1 mL PBS in the left ventricle of the heart. Mice are monitored daily for signs of ill health. Three days after tumor cell inoculation mice are randomized to treatment groups and treatment is started. […]. After 21 days of treatment, mice are euthanized under CO2 anesthesia and brains are excised for imaging. EGFP is detected in whole brains by the Maestro 420 In Vivo Spectral Imaging System (Cambridge Research and Instrumentation, Woburn, Mass.), using software (e.g., Nuance Technology, Burlington, Mass.) to distinguish or unmix images of fluorescence from multiple sources. […] Ten serial sections every 300 microns through the brain are analyzed using a 5× objective on a Zeiss microscope, containing an ocular grid with squares of 0.8 mm^2.
. […] “Mean Micromets” in Tables 6 and 7 refer to the mean number of metastases counted in 10 step sections from one hemisphere of the brain. “Mean Large Mets” in Tables 6 and 7 refer to the size of metastases determined by a 16 mm^2 ocular grid. […]

Series [3] has as its system MDA-MB-231BR cells brain metastases. The series can be described thus: Brain metastasis model, timing of SAHA administration (Example 6). It is filed as in vivo, nude mice. To be noted: for Large Metastases, Mean number per section: vehicle 7.65; for Micrometastases, Mean number per section: vehicle 170. On the procedure:
As described in Example 5, 175,000 MDA-MB-231BR cells in 0.1 mL PBS are injected into the left cardiac ventricle of the heart of nude mice. […] On day [X], mice are euthanized under CO2 anesthesia and brains are excised for imaging as described in Example 5.
Micro- and large (>50 microns^2) metastases are tabulated. The data set forth in Table 8 are representative of two experiments.

Series [4] has as its system 231-BR cells. The series can be described thus: MTT proliferation / colonization assay of 231-BR cells. Format: cell-based, human. The method, then:
The prepared cells are plated at a density of 15,000 cells/well in a 96 well plate and incubated for 3 hours to permit attachment. Cells are then washed with PBS, and media containing either 0.1% or 1% FBS is added to the cells. […] After a 72-hour incubation, 0.5 mg/mL MTT (Sigma, St. Louis, Mo.) is added and plates are incubated for 2 hours. Media is then aspirated, and MTT dissolved in DMSO for 30 minutes, after which the absorbance is read at a wavelength of 570 nm. […] Data in Table 4 is shown as percent of colonies formed±standard deviation compared to untreated controls. Results are representative of three independent experiments in quintuplicate. Analysis of variance (ANOVA) is used to assess in vitro functions of vehicle treated versus vorinostat treated cells. P values can be two-tailed. Tests can be performed using GraphPad InStat version 3.0 software.

For series [5], the system named is acetyl Histone H3, acetyl histone H4, p21. Nature of the series: Western blot of 231-BR cell lysates after HDI treatment. It is filed as cell-based, human. The conditions noted are these: 231-BR cells; depsipeptide 10 ng/mL or SAHA 5 μM; 0, 8, 24, 48 hours. On the procedure:
All cell lines are deemed free of mycoplasma and human pathogens and test negative in mouse antibody production (MAP) tests. […] Drug solution is added once at the beginning and left on the cells for the indicated duration (0, 8, 24, and 48 hours). Controls are performed in the same way with the same amount of vehicle solution for each drug, but without the drug. The vehicle can be DMSO. Cells are lysed according to standard procedures and Western blotting is performed. Primary antibodies specific to the targeted proteins are used including antibodies specific to acetyl Histone H3, acetyl histone H4, p21, and α-tubulin. Horseradish peroxidase-conjugated secondary antibodies purchased from Santa Cruz Biotechnology (Santa Cruz, Calif.) are used at dilutions of 1:5000. Proteins are visualized using enhanced chemilluminescence (Cell Signaling) and autoradiography. […] As histones H3 and H4 become hyperacetylated, protein levels of the cyclin-dependent kinase inhibitor p21 increase. Those changes indicate HDAC inhibition.
(In general: In western blotting, separated proteins are transferred to a membrane and probed.)

The mark [6] stands for this setting: 150 mg/kg SAHA IP once daily starting on day 3 post-injection until day 21.
Setting [7] is: 150 mg/kg SAHA IP once daily starting on day 7 post-injection until day 21.
The mark [8] stands for this setting: 150 mg/kg SAHA IP once daily starting on day 14 post-injection until day 21.

pIC50: −log10 of the molar value.

Consider `O=C(CCCCCCC(=O)Nc1ccccc1)NO` [SAHA, N-Hydroxy-N′-phenyloctanediamide], for which the “Motility Data, mean number of cells that migrate per well, 0.5% FCS” value with 231-BR cells [1] (0.5% FCS chemoattractant) is listed as 756 ± 56. The “Motility Data, mean number of cells that migrate per well, Control” value with 231-BR cells [1] (Control (no FCS chemoattractant)) amounted to 67 ± 6. Further, the “toxicity of the higher dosage” value in series [2] was “toxicity”. In addition, the “Large Metastases, Mean number per section” value in series [3] (setting [6]) is 2.89; in series [3] (setting [7]) it was 4.94; in series [3] (setting [8]), 5.96. In addition, the “Micrometastases, Mean number per section” value in series [3] (setting [6]) is reported as 122; in series [3] (setting [7]) it was 151; in series [3] (setting [8]), 171. The “reduction in large metastases” value in series [3] (150 mg/kg SAHA starting on day 3 post-injection, vs vehicle, P<0.001) turned out to be 57%; in series [3] (150 mg/kg SAHA starting on day 14 post-injection, vs vehicle, not statistically significant), 22%. The compound also displayed a reduction in micrometastases in series [3] (150 mg/kg SAHA starting on day 3 post-injection, vs vehicle, P=0.017) of 28%. Further, in series [3] (150 mg/kg SAHA starting on day 7 post-injection, vs vehicle, P=0.008), the “reduction (large metastases)” value was 34%. Further, the “Colonization Data, % Control” value with 231-BR cells [4] (231-BR cells, 72-hour incubation, SAHA 5 μM, depsipeptide 10 ng/mL, VPA 10 mM, TSA 100 ng/mL, ± standard deviation) turned out to be 47 ± 1.9 % Control. Moreover, the negative logarithm of the IC50 (pIC50) – broadly, −log10 of the IC50, conventionally taken in molar units – in the series with 231-BR cells [4] (Homo sapiens, read-out: IC50 (growth inhibition, absorbance at 570 nm)) was 4.90. In series [5], the “acetylation of histones H3 and H4 (Western blot)” value is reported as “hyperacetylated”.
